Patent US20060281720A1, “5-Androstenediol As An Inhibitor of Gliomas” (priority 2005, published 2006)

Legend:
[1] = test system: rat F98 glioma cells; experiment: Proliferation of rat F98 glioma cells by 3H-TdR incorporation; assay type: cell-based; settings: 3 days; for cell growth / proliferation (3H-TdR incorporation): compared to controls; for dose dependency of antiproliferative effect / proliferation: Example 2, FIG. 2; for dose dependency of antiproliferative effect: 500, 50, 5.0 and 0.5 μm; for proliferation: at 500 μm
Description: (§1) αAED, βAED, αAET, and βAET, are commercially available.
(§2) The F98 cells are weakly immunogenic. […] The T9 cell line is tumorgenic and immunogenic.
(§3) During the growth phase, the media was not changed.
(§4) Rat F98 glioma cells and […] glioma cells were grown and cultured as in example 1 above. The cells were cultured in the presence of αAED or βAED in titrated concentrations of 500 μm, 50 μm, 5.0 μm, and 0.5 μm. After 3 days, glioma cell proliferation was measured as described above.
(§5) The cells were cultured in the presence of αAED, βAED, αAET, βAET, or vehicle in titrated concentrations of 400 μm, 200 μm, 100 μm, and 50 μm.

[2] = test system: human T98 glioma cells; experiment: Proliferation of human T98 glioma cells by 3H-TdR incorporation; assay type: cell-based; settings: 3 days; for cell growth / proliferation (3H-TdR incorporation): compared to controls; for dose dependency of antiproliferative effect / proliferation: Example 2, FIG. 2; for dose dependency of antiproliferative effect: 500, 50, 5.0 and 0.5 μm; for proliferation: at 500 μm
Description: as §1, §2, §3, §4, §5

[3] = test system: rat F98 glioma cells; experiment: Morphology of rat F98 glioma cells viewed in situ by microscope; assay type: cell-based; settings: Example 3, FIG. 3, 24 hours; for morphological changes compared to vehicle treated cells: 20× magnification
Description: Cells were cultured as described in example 1 for 24 hours. Cells were cultured with […] of αAED, βAED, βAET, and vehicle. After culture, the cells were viewed in situ under 20× magnification using a reverse image microscope.

[4] = test system: human U87 glioma cells; settings: Example 1, FIG. 1; 500 μm, 3 days, compared to controls
Description: (§6) αAED, βAED, αAET, and βAET, are commercially available. Unless otherwise indicated, all steroids were dissolved in DMSO:ETHOL (1:1 v/v). Stock solutions were refrigerated and brought to room temperature before use. For testing, stock solutions were diluted in media immediately before use.
(§7) The rat F98 cell line was obtained from the American Type Culture Collection (ATCC No. CRL-2397). These cells are tumorgenic and have biological characteristics that closely resemble those of human glioblastoma. The F98 cells are weakly immunogenic. […] The T9 cell line is tumorgenic and immunogenic. The human U-87 cell line was obtained from American Type Culture Collection (ATCC No. HTB-14). These cells are tumorgenic and are derived from malignant gliomas. The human T98 cell line was obtained from the American Type Culture Collection (ATCC No. CRL-1690). These cells are derived from the brain of a subject diagnosed with glioblastoma multiforme.
(§8) Cells were grown in Complete Media (CM) consisting of Dulbecco's Modified Eagle Medium. Cells were initially seeded at a density of 1×10^4 cells per 0.2 ml in 96 well plates and grown at 37° C. During the growth phase, the media was not changed. Proliferation was measured by tritium uptake (as a measure of DNA synthesis). One microcurie (1 μC) was added to the cells and incubated overnight. The 96 well plate was then refrigerated and counted in a topcount cell plate harvester.
(§9) Rat F98 and T9 glioma cells and […] and U87 glioma cells were cultured in 96 well plates at a density of approximately 1×10^4 cells per well. Cells were treated with 500 μm of αAED or βAED or vehicle and cultured for 3 days. The cultures were pulsed with 3H-TdR for the last 15 hours.

[5] = test system: rat T9 glioma cells; settings: Example 1, FIG. 1; 500 μm, 3 days, compared to controls
Description: as §6, §7, §8, §9

[6] = test system: Raw 264.7; settings: Huynh and Loria, J Leukoc Biol 1997; cited from earlier work
[7] = test system: murine P388D1; settings: Huynh and Loria, J Leukoc Biol 1997; cited from earlier work
[8] = test system: human promyelocytic HL60 cells; settings: Huynh and Loria, J Leukoc Biol 1997; cited from earlier work
[9] = Example 5, FIG. 5, 400, 200, 100 and 50 μM
[10] = Example 4, FIG. 4, 400, 200, 100 and 50 μM

## C[C@]12CC[C@H]3[C@@H]([C@@H](O)C=C4C[C@@H](O)CC[C@@]43C)[C@@H]1CC[C@@H]2O [βAET, 5-androstene-3β-7β-17β-triol]
[1]; [9]
  cell growth / proliferation (3H-TdR incorporation): displayed significant effects on the proliferation
[2]; [10]
  cell growth / proliferation (3H-TdR incorporation): displayed significant effects on the proliferation
[3]
  morphology of apoptosis (cell shrinkage, rounding, vacuolization, partial detachment, lobulated appearance): display morphology of apoptasis
  morphological changes compared to vehicle treated cells: significant morphological changes

## 5-androstene-3β-17α-diol [αAED]
[1]; Example 1, FIG. 1, 500 μm
  cell growth / proliferation (3H-TdR incorporation): inhibited cell growth
[1]
  dose dependency of antiproliferative effect: dose dependent
  proliferation: inhibited the proliferation
[1]; [9]
  cell growth / proliferation (3H-TdR incorporation): significantly inhibited cell growth
[4]
  cell growth / proliferation (3H-TdR incorporation): inhibited cell growth
[5]
  cell growth / proliferation (3H-TdR incorporation): inhibited cell growth
[2]; Example 1, FIG. 1, 500 μm
  cell growth / proliferation (3H-TdR incorporation): inhibited cell growth
[2]
  dose dependency of antiproliferative effect: dose dependent
  proliferation: inhibited the proliferation
[2]; [10]
  cell growth / proliferation (3H-TdR incorporation): significantly inhibited cell growth
[3]
  morphology of apoptosis (cell shrinkage, rounding, vacuolization, partial detachment, lobulated appearance): display morphology of apoptasis
  morphological changes compared to vehicle treated cells: most drastic morphological changes
[6]
  proliferation and apoptosis: inhibits the proliferation and induces apoptosis
[7]
  proliferation and apoptosis: inhibits the proliferation and induces apoptosis
[8]
  proliferation and apoptosis: inhibits the proliferation and induces apoptosis

## C[C@]12CC[C@H]3[C@@H]([C@H](O)C=C4C[C@@H](O)CC[C@@]43C)[C@@H]1CC[C@@H]2O [αAET, 5-androstene-3β-7α-17β-triol]
[1]; [9]
  cell growth / proliferation (3H-TdR incorporation): displayed significant effects on the proliferation
[2]; [10]
  cell growth / proliferation (3H-TdR incorporation): displayed significant effects on the proliferation

## 5-androstene-3β-17β-diol [βAED]
[1]; Example 1, FIG. 1, 500 μm
  cell growth / proliferation (3H-TdR incorporation): inhibited cell growth
[1]
  dose dependency of antiproliferative effect: dose dependent
  proliferation: inhibited the proliferation
[1]; [9]
  cell growth / proliferation (3H-TdR incorporation): inhibited cell growth
[4]
  cell growth / proliferation (3H-TdR incorporation): inhibited cell growth
[5]
  cell growth / proliferation (3H-TdR incorporation): inhibited cell growth
[2]; Example 1, FIG. 1, 500 μm
  cell growth / proliferation (3H-TdR incorporation): inhibited cell growth
[2]
  dose dependency of antiproliferative effect: dose dependent
  proliferation: inhibited the proliferation
[2]; [10]
  cell growth / proliferation (3H-TdR incorporation): inhibited cell growth
[3]
  morphology of apoptosis (cell shrinkage, rounding, vacuolization, partial detachment, lobulated appearance): display morphology of apoptasis
  morphological changes compared to vehicle treated cells: significant morphological changes
